Converted amounts (≈) assume the structure as drawn. Where two headings read alike, the source gives them in different places.
Experiments:
Solubility in solvents = assay type: physicochemical
ICR mice = experiment: Toxicity after intraperitoneal administration to mice; assay type: in vivo; details: dose 100 mg/kg
[1] = tested on: Cryptococcus neoformans TIMM0354; experiment: Antimicrobial spectrum, liquid medium dilution method; assay type: cell-based; details: medium YNBG, minimal concentration causing substantially complete inhibition of growth, read-out: Minimal inhibitory concentration
Experimental: (§1) The TKR459 obtained was used to determine antimicrobial spectra against various microorganisms. The minimal inhibitory concentration (µg/ml) was measured by the liquid medium dilution method as the minimal concentration causing a substantially complete inhibition of micobial growth. The sub-minimal inhibitory concentration (µg/ml) was determined as the minimal concentration causing a partial inhibition of micobial growth and shown in the parentheses of Table 2. In the table, YNBG stands for a medium comprising 0.67% of yeast nitrogen base (manufactured by Difco) and 1.0% of glucose.

[2] = tested on: Candida albicans TIMM0136; experiment: as above; assay type: cell-based; details: medium YNBG, minimal concentration causing substantially complete inhibition of growth, read-out: Minimal inhibitory concentration
Experimental: as §1

Candida kefyr TIMM0301 = experiment: as above; assay type: cell-based; details: Kluyveromyces marxianus, medium YNBG
Experimental: as §1

SMILES: CC1(CCC(=O)O)CCCCCCCCCCCCCC(O)C(O)C(O)C(N)C(O)O1 (stereo not drawn) [TKR459]
- solubility (Solubility in solvents; in chloroform): sparingly soluble
- solubility (Solubility in solvents; in hexane): sparingly soluble
- solubility (Solubility in solvents; in methanol): soluble
- solubility (Solubility in solvents; in water): soluble
- toxic signs (ICR mice): no toxic signs
- MIC [1]: 3.13 µg/mL (≈ 6.99 µM)
- MIC [2]: 0.78 µg/mL (≈ 1.74 µM)
- MIC (Candida kefyr TIMM0301; minimal concentration causing substantially complete inhibition of growth, read-out: Minimal inhibitory concentration): 0.78 µg/mL (≈ 1.74 µM)
- MIC (Candida kefyr TIMM0301; value in parentheses, minimal concentration causing partial inhibition of growth, read-out: sub-minimal inhibitory concentration): 0.39 µg/mL (≈ 0.871 µM)
